Consider one compound from patent US20160291027A1, “METHODS FOR […] ABILITY OF A Z[…] COMPOUND TO TREAT CANCER” (Eisai R&D Management Co., Ltd., priority 2007, published 2016).

This assay concerns DBTRG-05MG human glioblastoma xenografts. The experiment in a line: Subcutaneous DBTRG-05MG glioblastoma xenograft model. Type of assay: in vivo, mice. Here is the method: The purpose of this study was to investigate anticancer activity of Compound 106 in a human DBTRG-05MG glioblastoma xenograft model. DBTRG-05MG human glioblastoma cancer cells, which carry the BRAF (V600E) mutation, were grown in monolayer cultures in ATCC-recommended growth media at 37° C. in a 5% CO2 humidified incubator. Cells were expanded in T225 flasks for the in vivo study. On the day of injection, growth medium was removed, flasks were washed with PBS, and cells were collected by trypsinization. The cells were washed and collected by centrifugation, and resuspended in ice-cold PBS.
Female athymic NU/NU mice (6 week old, Charles River Laboratories (Wilmington, Mass.)) were inoculated subcutaneously (s.c.) with 5×10^6 DBTRG-05MG human glioblastoma cancer cells. Those animals that developed tumors of approximately 150 mm^3 were selected and randomized into five groups.
The study consisted of a vehicle-treated group and four drug-treated groups of 8 mice per group for a total of 40 mice on the first day of treatment. All treatments were initiated on day 21. Compound 106 was administered intravenously (i.v.) on a Q4D×3 (days 21, 25, and 29) dosing schedule at dosages of 5, 10, 20 and 40 mg/kg with a volume of injection of 0.1 mL per 10 g body weight (Q4D×3=every four days for a total of three injections). The control group was treated with vehicle alone (20% Captisol in water; Captisol® (Sulfobutyl Ether Beta Cycolodextrin, Sodium Salt; Cydex, Inc., KS)).
General health of the mice was monitored and mortality was recorded daily. Tumor dimensions and animal body weights were recorded twice a week starting on the first day of treatment. The s.c. tumor volumes were measured and animals were weighed twice weekly starting with the first day of treatment. Tumor volume was determined by caliper measurement (mm) and using the following formula: […]
The study was terminated 60 days after cancer cell transplantation. […]

For the compound `CCNc1cc(O)c2c(c1)/C=C/C[C@H](O)[C@H](O)C(=O)/C=C\[C@@H](C)[C@H](C)OC2=O` [Compound 106], the “Tumor-free animals on day 60” value (5 mg/kg i.v. Q4D×3) is on record as “One out of eight” and the “Tumor-free animals on day 60” value (20 mg/kg i.v. Q4D×3) was “One out of eight”. Also, the “Anticancer activity (tumor volume vs. control group)” value (5, 10, 20, and 40 mg/kg i.v. Q4D×3) is “statistically significant anticancer activity”.
